{"source": "patent US5811454A", "about": "(priority 1993, dated 1998)", "key": {"[1]": {"target": "CPG2 (Pseudomonas sp., UniProt P06621)", "sequence (P06621 23-415)": "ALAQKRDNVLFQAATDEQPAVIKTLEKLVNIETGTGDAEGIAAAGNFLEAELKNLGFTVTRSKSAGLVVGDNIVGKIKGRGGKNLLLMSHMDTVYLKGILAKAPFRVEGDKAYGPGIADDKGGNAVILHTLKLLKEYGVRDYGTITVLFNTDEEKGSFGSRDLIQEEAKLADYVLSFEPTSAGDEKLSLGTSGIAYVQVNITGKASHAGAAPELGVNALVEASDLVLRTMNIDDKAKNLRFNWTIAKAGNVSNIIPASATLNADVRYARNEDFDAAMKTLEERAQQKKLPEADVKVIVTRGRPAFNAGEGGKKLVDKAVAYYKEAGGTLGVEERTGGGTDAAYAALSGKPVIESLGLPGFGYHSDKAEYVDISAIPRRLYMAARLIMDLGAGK", "type": "biochemical, bacterial"}, "[2]": {"system": "colorectal cell line LS174T", "assay": "cells", "details": "Homo sapiens, 1 h"}, "[3]": {"system": "colorectal cell line LS174T"}, "[4]": {"details": "ph stat, naoh titration"}}, "note": "pIC50: −log10 of the molar value. Entries after “also recorded” stand apart in the source; their conditions may differ. Where two headings read alike, the source gives them in different places."}
{"smiles": "CS(=O)(=O)OCCN(CCOS(C)(=O)=O)c1ccc(C(=O)N[C@@H](CCC(=O)O)C(=O)O)c(F)c1", "note": "[Compound 7, 2-fluoro, 4-[bis-[2-(mesyloxy)ethyl]amino]benzoyl-L-glutamic acid]", "values": [{"measurement": "Ability of prodrug to act as CPG2 substrate (in words)", "setting": "[1]", "result": "such a poor substrate that it was not possible to measure its kinetics; also recorded: very poor substrate"}, {"measurement": "pIC50", "setting": "[2]; read-out: Prodrug + CPG2 IC50", "result": "< 3.10"}, {"measurement": "pIC50", "setting": "[2]; read-out: Prodrug IC50", "result": "< 3.10"}]}
{"smiles": "CS(=O)(=O)OCCN(CCCl)c1ccc(C(=O)N[C@@H](CCC(=O)O)C(=O)O)c(F)c1", "note": "[Compound 8, 2-fluoro, 4-[(2-chloroethyl)[2-(mesyloxy)ethyl]amino]benzoyl-L-glutamic acid]", "values": [{"measurement": "Ability of prodrug to act as CPG2 substrate (in words)", "setting": "[1]", "result": "good substrates"}, {"measurement": "pIC50", "setting": "[2]; read-out: Prodrug + CPG2 IC50", "result": "< 3.10"}, {"measurement": "pIC50", "setting": "[2]; read-out: Prodrug IC50", "result": "< 3.10"}]}
{"smiles": "O=C(O)CC[C@H](NC(=O)c1ccc(N(CCCl)CCCl)cc1F)C(=O)O", "note": "[Compound 9, 2-fluoro, 4-[bis(2-chloroethyl)amino]benzoyl-L-glutamic acid]", "values": [{"measurement": "Ability of prodrug to act as CPG2 substrate (in words)", "setting": "[1]", "result": "good substrates"}, {"measurement": "kcat", "setting": "[1]", "result": 462, "unit": "S^-1"}, {"measurement": "pIC50", "setting": "[3]; read-out: Prodrug + CPG2 IC50", "result": "< 3.10"}, {"measurement": "pIC50", "setting": "[3]; read-out: Prodrug IC50", "result": "< 3.10"}]}
{"smiles": "CS(=O)(=O)OCCN(CCCl)c1ccc(C(=O)O)c(F)c1", "note": "[Compound 11]", "values": [{"measurement": "Active Drug t1/2 (chemical half-life)", "setting": "[4]", "result": 192, "unit": "min"}, {"measurement": "pIC50", "setting": "[2]; read-out: Active Drug IC50", "result": "< 3.10"}]}
{"smiles": "CS(=O)(=O)OCCN(CCOS(C)(=O)=O)c1ccc(C(=O)N[C@@H](CCC(=O)O)C(=O)O)cc1F", "note": "[Compound 19]", "values": [{"measurement": "Ability of prodrug to act as CPG2 substrate (in words)", "setting": "[1]", "result": "good substrates"}, {"measurement": "pIC50", "setting": "[2]; read-out: Prodrug + CPG2 IC50", "result": 3.32}, {"measurement": "pIC50", "setting": "[2]; read-out: Prodrug IC50", "result": "< 3.10"}]}
{"smiles": "CS(=O)(=O)OCCN(CCCl)c1ccc(C(=O)N[C@@H](CCC(=O)O)C(=O)O)cc1F", "note": "[Compound 20, 3-fluoro, 4-[(2-chloroethyl)[2-(mesyloxy)ethyl]amino]benzoyl-L-glutamic acid]", "values": [{"measurement": "Ability of prodrug to act as CPG2 substrate (in words)", "setting": "[1]", "result": "good substrates"}, {"measurement": "Prodrug t1/2 (chemical half-life)", "setting": "[4]", "result": 122, "unit": "min"}, {"measurement": "pIC50", "setting": "[2]; read-out: Prodrug + CPG2 IC50", "result": 3.46}, {"measurement": "pIC50", "setting": "[2]; read-out: Prodrug IC50", "result": "< 3.10"}]}
{"smiles": "O=C(O)CC[C@H](NC(=O)c1ccc(N(CCCl)CCCl)c(F)c1)C(=O)O", "note": "[Compound 21, 3-fluoro, 4-[bis(2-chloroethyl) ,amino] benzoyl-L-glutamic acid]", "values": [{"measurement": "Ability of prodrug to act as CPG2 substrate (in words)", "setting": "[1]", "result": "good substrates"}, {"measurement": "kcat", "setting": "[1]", "result": 1028, "unit": "S^-1"}, {"measurement": "pIC50", "setting": "[3]; read-out: Prodrug + CPG2 IC50", "result": 3.41}, {"measurement": "pIC50", "setting": "[3]; read-out: Prodrug IC50", "result": "< 3.10"}]}
{"smiles": "CS(=O)(=O)OCCN(CCOS(C)(=O)=O)c1ccc(C(=O)O)cc1F", "note": "[Compound 22]", "values": [{"measurement": "Active Drug t1/2 (chemical half-life)", "setting": "[4]", "result": 1.9, "unit": "min"}, {"measurement": "pIC50", "setting": "[2]; read-out: Active Drug IC50", "result": 3.32}]}
{"smiles": "CS(=O)(=O)OCCN(CCCl)c1ccc(C(=O)O)cc1F", "note": "[Compound 23]", "values": [{"measurement": "Active Drug t1/2 (chemical half-life)", "setting": "[4]", "result": 2.4, "unit": "min"}, {"measurement": "pIC50", "setting": "[2]; read-out: Active Drug IC50", "result": 3.55}]}
{"smiles": "CS(=O)(=O)OCCN(CCOS(C)(=O)=O)c1ccc(C(=O)N[C@@H](CCC(=O)O)C(=O)O)cc1", "note": "[Compound 25, reference compound]", "values": [{"measurement": "Prodrug t1/2 (chemical half-life)", "setting": "[4]", "result": 42, "unit": "min"}]}
{"smiles": "CS(=O)(=O)OCCN(CCCl)c1ccc(C(=O)N[C@@H](CCC(=O)O)C(=O)O)cc1", "note": "[Compound 26, 4[(2chloroethyl)[2(mesyloxy)ethyl]amino]benzoylL-glutamic acid, reference compound]", "values": [{"measurement": "Prodrug t1/2 (chemical half-life)", "setting": "[4]", "result": 984, "unit": "min"}, {"measurement": "Prodrug activity (increased cytotoxicity on conversion by CPG2)", "setting": "[3]", "result": "substantial prodrug activity"}, {"measurement": "pIC50", "setting": "[2]; read-out: Prodrug + CPG2 IC50", "result": 3.70}, {"measurement": "pIC50", "setting": "[2]; read-out: Prodrug IC50", "result": "< 3.10"}]}
{"smiles": "CS(=O)(=O)OCCN(CCCl)c1ccc(C(=O)O)cc1", "note": "[Compound 29, reference compound]", "values": [{"measurement": "Active Drug t1/2 (chemical half-life)", "setting": "[4]", "result": 58, "unit": "min"}, {"measurement": "pIC50", "setting": "[2]; read-out: Active Drug IC50", "result": 3.73}]}
